Experimental findings from US20160324738A1, “Oral Compositions Containing Stannous” (The Procter & Gamble Company, priority 2015, published 2016) are described below.

The nature of this assay: In-vitro pH cycling study of enamel fluoride uptake (enamel fluoridation). The arrangement: species or system human. The following applies: both salts at levels providing 1100 ppm of fluoride ion; versus sodium fluoride. The protocol:
An in-vitro pH cycling study was conducted to evaluate the effect of excess metals and its modulation on fluoride uptake in pre-demineralized human enamel specimens.

As to `[F][Sn][F]` [stannous fluoride], the enamel fluoridation result is “less than what is typically seen with sodium fluoride”.
